US12065445B2, “CDK2 inhibitors and methods of using the same” (Cedilla Therapeutics, Inc., priority 2021, dated 2024)

What was measured:
[1] = system: Kuramochi cells; assay: BrdU Cell Proliferation Assay; type: cell-based; settings: read-out: BrdU - KURAMOCHI.1: IC50
Outline: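 Kuramochi cells were seeded at 2,000 cells/well, adhered overnight, then treated with a 10-point, 3-fold compound dilution series for 4 days. Proliferation was measured by a 1-hour BrdU pulse, anti-BrdU peroxidase colorimetric ELISA and 450 nm absorbance. Values were background-subtracted and normalized to DMSO wells.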

[2] = system: Kuramochi cells labeled with mApple-H2B; assay: IncuCyte Cell Proliferation Assay; type: cell-based; settings: 72 h
Outline: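 Cells imaged at 0 and 72 h after compound treatment (10 points, ½ log dilution, 20 μM top), with fluorescent nuclei counted. Fold change in count was normalized to DMSO wells and fitted to dose-response curves to give GI50.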

Question: Which results are given for `CC1(C)C[C@@H]1C(=O)N1CC2(CN(C(=O)c3cnn(Cc4ccccc4)c3)C[C@@H]2C(=O)N[C@H]2CCc3cc(Cl)ccc32)C1` [I-133B]?
Answer: IC50 [1]: > 10 µM; IC50 [2]: > 20 µM

Question: How did the IC50 [1] turn out when `CO[C@H]1COCC[C@H]1NC(=O)[C@@H]1CN(C(=O)c2cnn(Cc3ccccc3)c2)CC12CN(C(=O)[C@H]1CC1(C)C)C2` [I-134A] was run?
Answer: > 10 µM

Question: What about the IC50 [2] of the same compound?
Answer: > 20 µM

Question: How did the IC50 [1] turn out when `CO[C@H]1COCC[C@H]1NC(=O)[C@H]1CN(C(=O)c2cnn(Cc3ccccc3)c2)CC12CN(C(=O)[C@H]1CC1(C)C)C2` [I-134B] was run?
Answer: > 10 µM

Question: And the IC50 [2]?
Answer: > 20 µM

Question: How did the IC50 [1] turn out when `C[C@@H](OCC1CCCCC1)[C@@H](CO)NC(=O)[C@@H]1CN(C(=O)c2cnn(Cc3ccccc3)c2)CC12CN(C(=O)[C@H]1CC1(C)C)C2` [I-135A] was run?
Answer: 0.5 to 5 µM

Question: And the IC50 [2]?
Answer: 0.5 to 5 µM

Question: `C[C@@H](OCC1CCCCC1)[C@@H](CO)NC(=O)[C@H]1CN(C(=O)c2cnn(Cc3ccccc3)c2)CC12CN(C(=O)[C@H]1CC1(C)C)C2` [I-135B] was tested. Which IC50 [1] did it give?
Answer: > 10 µM

Question: And the IC50 [2]?
Answer: 5 to 20 µM

Question: For `CNC(=O)[C@@H](NC(=O)[C@@H]1CN(C(=O)c2cnn(Cc3ccc(F)cc3)c2)CC12CN(C(=O)[C@H]1CC1(C)C)C2)[C@@H](C)OCc1ccc(F)cc1` [I-136A], which IC50 [1] is on record?
Answer: 0.5 to 5 µM

Question: And the IC50 [2]?
Answer: 5 to 20 µM

Question: With `CNC(=O)[C@@H](NC(=O)[C@@H]1CN(C(=O)c2cnn(Cc3ccccc3)c2)CC12CN(C(=O)[C@H]1CC1(C)C)C2)[C@@H](C)OCC(C)C` [I-137A] as the compound, how does the IC50 [1] read?
Answer: > 10 µM

Question: And the IC50 [2]?
Answer: > 20 µM

Question: Which results are given for `CNC(=O)[C@@H](NC(=O)[C@H]1CN(C(=O)c2cnn(Cc3ccccc3)c2)CC12CN(C(=O)[C@H]1CC1(C)C)C2)[C@@H](C)OCC(C)C` [I-137B]?
Answer: IC50 [1]: > 10 µM; IC50 [2]: > 20 µM

Question: Which IC50 [1] does the source give for `C[C@@H](OCC1CCCCC1)[C@H](NC(=O)C1CN(C(=O)c2cncs2)CC12CN(C(=O)[C@H]1CC1(C)C)C2)C(=O)N1CCOCC1` (some centres unmarked) [I-138] here?
Answer: ≤ 0.5 µM

Question: And the IC50 [2]?
Answer: ≤ 0.5 µM

Question: Which IC50 [1] does the source give for `CC1(C)C[C@@H]1C(=O)N1CC2(CN(C(=O)c3cnn(Cc4ccccc4)c3)C[C@H]2C(=O)N[C@H]2C[C@@H]2c2cccc(Cl)c2)C1` [I-140A] here?
Answer: > 10 µM

Question: What about the IC50 [2] of the same compound?
Answer: 5 to 20 µM

Question: With `CNC(=O)[C@@H](NC(=O)[C@H]1CN(C(=O)c2cnn(Cc3ccccc3)c2)CC12CN(C(=O)[C@H]1CC1(C)C)C2)[C@@H](C)OCC1CCC(C(F)(F)F)CC1` (some centres unmarked) [I-141B] as the compound, how does the IC50 [1] read?
Answer: 0.5 to 5 µM

Question: What about the IC50 [2] of the same compound?
Answer: 5 to 20 µM

Question: What does the source list for `C[C@@H](OCC1CCCCC1)[C@H](NC(=O)C1CN(C(=O)c2cnn(Cc3ccccc3)c2)CC12CN(C(=O)[C@H]1CC1(C)C)C2)C(=O)N1CCC(F)(F)CC1` (some centres unmarked) [I-149 mixture]?
Answer: IC50 [1]: ≤ 0.5 µM; IC50 [2]: ≤ 0.5 µM

Question: What does the source list for `C[C@@H](OCC1CCCCC1)[C@H](NC(=O)[C@@H]1CN(C(=O)c2cnn(Cc3ccccc3)c2)CC12CN(C(=O)[C@H]1CC1(C)C)C2)C(=O)N1CCC(F)(F)CC1` [I-149A]?
Answer: IC50 [1]: ≤ 0.5 µM; IC50 [2]: ≤ 0.5 µM

Question: What does the source list for `C[C@@H](OCC1CCCCC1)[C@H](NC(=O)[C@@H]1CN(C(=O)c2cn[nH]c2)CC12CN(C(=O)[C@H]1CC1(C)C)C2)C(=O)N1CCCCC1` [I-151A]?
Answer: IC50 [1]: 0.5 to 5 µM; IC50 [2]: 0.5 to 5 µM

Question: What does the source list for `C[C@@H](OCC1CCCCC1)[C@H](NC(=O)C1CN(C(=O)c2cnn(Cc3ccccc3)c2)CC12CN(C(=O)[C@H]1CC1(C)C)C2)C(=O)N1CCOCC1` (some centres unmarked) [I-152 mixture]?
Answer: IC50 [1]: ≤ 0.5 µM; IC50 [2]: ≤ 0.5 µM

Question: Which results are given for `C[C@@H](OCC1CCCCC1)[C@H](NC(=O)[C@@H]1CN(C(=O)c2cnn(Cc3ccccc3)c2)CC12CN(C(=O)[C@H]1CC1(C)C)C2)C(=O)N1CCOCC1` [I-152A]?
Answer: IC50 [1]: ≤ 0.5 µM; IC50 [2]: ≤ 0.5 µM

Question: For `C[C@@H](OCC1CCCCC1)[C@H](NC(=O)[C@H]1CN(C(=O)c2cnn(Cc3ccccc3)c2)CC12CN(C(=O)[C@H]1CC1(C)C)C2)C(=O)N1CCOCC1` [I-152B], which IC50 [1] is on record?
Answer: > 10 µM

Question: And the IC50 [2]?
Answer: 5 to 20 µM

Question: How did the IC50 [1] turn out when `C[C@@H](OCC1CCCCC1)[C@H](NC(=O)C1CN(C(=O)c2cnn(Cc3ccccc3)c2)CC12CN(C(=O)[C@H]1CC1(C)C)C2)C(=O)N1CC(C)(C)C1` (some centres unmarked) [I-153 mixture] was run?
Answer: ≤ 0.5 µM

Question: And the IC50 [2]?
Answer: ≤ 0.5 µM

Question: Which IC50 [1] does the source give for `C[C@@H](OCC1CCCCC1)[C@H](NC(=O)[C@@H]1CN(C(=O)c2cnn(Cc3ccccc3)c2)CC12CN(C(=O)[C@H]1CC1(C)C)C2)C(=O)N1CC(C)(C)C1` [I-153A] here?
Answer: ≤ 0.5 µM

Question: What about the IC50 [2] of the same compound?
Answer: ≤ 0.5 µM
